Reference: ChEMBL document CHEMBL3872247, “Discovery of dual positive allosteric modulators (PAMs) of the metabotropic glutamate 2 receptor and CysLT1 antagonists for treating migraine headache” (Bioorg Med Chem Lett, 2017)
pEC50, pIC50, pKi: −log10 of the molar value.

Tests used:
[1] = test system: Rattus norvegicus; experiment: Decrease in plasma protein extravasation in fasted Harlan Sprague-Dawley rat model of migraine compound administered via oral gavage 1 hr prior to electrical stimulation of trigeminal ganglion measured after 15 mins by FITC-BSA based fluorescence assay; format: functional
[2] = species on record: Rattus norvegicus; experiment: Displacement of [3H]GABA from non-selective GABA channel in rat cerebral cortex at 10 uM measured after 60 mins by scintillation counting method
[3] = molecular target: 5-hydroxytryptamine receptor 2C (Homo sapiens, UniProt P28335); experiment: Activity at human 5T2C receptor
[4] = species on record: Rattus norvegicus; experiment: Displacement of [3H]flunitrazepam from Central-type benzodiazepine receptor in rat cerebral cortex at 10 uM measured after 60 mins by scintillation counting method
[5] = molecular target: T1, Metabotropic glutamate receptor 3 (Homo sapiens, UniProt Q14832); experiment: Positive allosteric modulation of recombinant human mGlu3 expressed in hamster AV12 cells expressing EAAT1 assessed as potentiation of glutamate-induced intracellular Ca2+ level measured after 24 hrs by FLIPR assay; format: functional, cell-based
[6] = Volume of distribution in dog at 0.5 mg/kg, iv; format: ADME, organism-based, Canis lupus familiaris; conditions: in vivo
[7] = molecular target: T1, Metabotropic glutamate receptor 3; experiment: Antagonist activity at recombinant human mGlu3 receptor expressed in hamster AV12 cells expressing EAAT1 assessed as inhibition of glutamate-induced intracellular Ca2+ level measured after 24 hrs by FLIPR assay; format: functional, cell-based
[8] = molecular target: T2, Metabotropic glutamate receptor 5 (Homo sapiens, UniProt P41594); experiment: Antagonist activity at recombinant human mGlu5 receptor expressed in hamster AV12 cells expressing EAAT1 assessed as inhibition of glutamate-induced intracellular Ca2+ level measured after 24 hrs by FLIPR assay; format: functional, cell-based
[9] = Clearance in rat at 1 mg/kg, iv; format: ADME, organism-based; conditions: in vivo
[10] = Cmax in rat at 1 mg/kg, po; format: ADME, organism-based; set-up: dose 1 mg/kg, route oral; conditions: in vivo
[11] = Ratio of drug level in brain to plasma in rat at 15 mg/kg, po; format: ADME, organism-based
[12] = molecular target: 5-hydroxytryptamine receptor 4 (Homo sapiens, UniProt Q13639); experiment: Displacement of human recombinant 5HT4E receptor expressed in CHO cells after 60 mins by scintillation counting method; format: cell-based
[13] = molecular target: 5-hydroxytryptamine receptor 1D (Homo sapiens, UniProt P28221); experiment: Activity at human 5HT1D receptor
[14] = molecular target: T3, Metabotropic glutamate receptor 2 (Homo sapiens, UniProt Q14416); experiment: Agonist activity at recombinant human mGlu2 receptor expressed in hamster AV12 cells expressing EAAT1 assessed as increase in intracellular calcium level measured after 24 to 48 hrs by FLIPR assay; format: functional, cell-based
[15] = Ratio of Cmax in rat to EC50 for human mGlu2 receptor expressed in hamster AV12 cells expressing EAAT1
[16] = molecular target: 5-hydroxytryptamine receptor 1B (Homo sapiens, UniProt P28222); experiment: Activity at human 5HT1B receptor
[17] = molecular target: Cytochrome P450 3A4 (Homo sapiens, UniProt P08684); experiment: Inhibition of CYP3A4 (unknown origin); format: ADME
[18] = Cmax in dog at 0.5 mg/kg, iv; format: ADME, organism-based, Canis lupus familiaris; set-up: dose 0.5 mg/kg, route intravenous; conditions: in vivo
[19] = Oral bioavailability in rat at 1 mg/kg; format: ADME, organism-based; conditions: in vivo
[20] = molecular target: Cytochrome P450 2C9 (Homo sapiens, UniProt P11712); experiment: Inhibition of CYP2C9 (unknown origin); format: ADME
[21] = molecular target: T2, Metabotropic glutamate receptor 5; experiment: Agonist activity at recombinant human mGlu5 expressed in hamster AV12 cells expressing EAAT1 assessed as increase in intracellular calcium level measured after 24 hrs by FLIPR assay; format: functional, cell-based
[22] = molecular target: Histamine H2 receptor (Homo sapiens) (UniProt P25021); experiment: Displacement of [125I]APT from recombinant human histamine H2 receptor expressed in HEK293 cells at 10 uM measured after 120 mins by scintillation counting method; format: cell-based
[23] = molecular target: T3, Metabotropic glutamate receptor 2; experiment: Antagonist activity at recombinant human mGlu2 receptor expressed in hamster AV12 cells expressing EAAT1 assessed as inhibition of glutamate-induced increase in intracellular Ca2+ level measured after 24 to 48 hrs by FLIPR assay; format: functional, cell-based
[24] = Ratio of Cmax in rat to EC50 for human CysLT1 expressed in Syrian hamster AV12-664 cells
[25] = molecular target: Adenosine receptor A1 (Homo sapiens) (UniProt P30542); experiment: Displacement of [3H]DPCPX from human adenosine A1 receptor at 10 uM measured after 60 mins by scintillation counting method
[26] = molecular target: D(1A) dopamine receptor (Homo sapiens) (UniProt P21728); experiment: Displacement of [3H]SCH23390 from recombinant human dopamine D1 receptor expressed in CHO cells at 10 uM measured after 60 mins by scintillation counting method; format: cell-based
[27] = molecular target: T3, Metabotropic glutamate receptor 2; experiment: Positive allosteric modulation of recombinant human mGlu2 receptor expressed in hamster AV12 cells expressing EAAT1 assessed as potentiation of glutamate-induced intracellular calcium level measured after 24 to 48 hrs by FLIPR assay; format: functional, cell-based
[28] = Volume of distribution in rat at 1 mg/kg, iv; format: ADME, organism-based; conditions: in vivo
[29] = molecular target: Cytochrome P450 2D6 (Homo sapiens, UniProt P10635); experiment: Inhibition of CYP2D6 (unknown origin); format: ADME

T3 sequence (Q14416 whole entry): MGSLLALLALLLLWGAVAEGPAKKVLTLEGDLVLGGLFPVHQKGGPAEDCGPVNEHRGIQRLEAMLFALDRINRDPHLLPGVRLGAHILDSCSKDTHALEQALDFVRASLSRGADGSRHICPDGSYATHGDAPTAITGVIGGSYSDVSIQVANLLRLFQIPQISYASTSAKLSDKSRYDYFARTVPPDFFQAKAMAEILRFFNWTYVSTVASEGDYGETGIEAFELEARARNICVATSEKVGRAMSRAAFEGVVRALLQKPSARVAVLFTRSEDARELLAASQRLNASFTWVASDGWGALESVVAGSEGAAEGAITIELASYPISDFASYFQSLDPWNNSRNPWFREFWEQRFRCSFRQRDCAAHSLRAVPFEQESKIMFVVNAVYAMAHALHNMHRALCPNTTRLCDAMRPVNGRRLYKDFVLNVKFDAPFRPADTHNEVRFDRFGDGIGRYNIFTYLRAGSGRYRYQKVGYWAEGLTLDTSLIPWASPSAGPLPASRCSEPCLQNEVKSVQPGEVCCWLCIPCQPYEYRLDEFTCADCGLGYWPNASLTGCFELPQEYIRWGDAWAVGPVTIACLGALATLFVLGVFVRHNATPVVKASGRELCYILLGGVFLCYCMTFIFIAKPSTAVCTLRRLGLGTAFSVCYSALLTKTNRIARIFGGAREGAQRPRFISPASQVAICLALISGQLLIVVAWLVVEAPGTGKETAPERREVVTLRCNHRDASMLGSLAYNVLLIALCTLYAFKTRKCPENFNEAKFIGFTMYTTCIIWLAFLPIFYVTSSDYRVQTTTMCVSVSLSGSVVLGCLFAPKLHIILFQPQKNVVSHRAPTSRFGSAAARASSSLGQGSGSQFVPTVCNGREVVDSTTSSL
T1 sequence (Q14832 whole entry): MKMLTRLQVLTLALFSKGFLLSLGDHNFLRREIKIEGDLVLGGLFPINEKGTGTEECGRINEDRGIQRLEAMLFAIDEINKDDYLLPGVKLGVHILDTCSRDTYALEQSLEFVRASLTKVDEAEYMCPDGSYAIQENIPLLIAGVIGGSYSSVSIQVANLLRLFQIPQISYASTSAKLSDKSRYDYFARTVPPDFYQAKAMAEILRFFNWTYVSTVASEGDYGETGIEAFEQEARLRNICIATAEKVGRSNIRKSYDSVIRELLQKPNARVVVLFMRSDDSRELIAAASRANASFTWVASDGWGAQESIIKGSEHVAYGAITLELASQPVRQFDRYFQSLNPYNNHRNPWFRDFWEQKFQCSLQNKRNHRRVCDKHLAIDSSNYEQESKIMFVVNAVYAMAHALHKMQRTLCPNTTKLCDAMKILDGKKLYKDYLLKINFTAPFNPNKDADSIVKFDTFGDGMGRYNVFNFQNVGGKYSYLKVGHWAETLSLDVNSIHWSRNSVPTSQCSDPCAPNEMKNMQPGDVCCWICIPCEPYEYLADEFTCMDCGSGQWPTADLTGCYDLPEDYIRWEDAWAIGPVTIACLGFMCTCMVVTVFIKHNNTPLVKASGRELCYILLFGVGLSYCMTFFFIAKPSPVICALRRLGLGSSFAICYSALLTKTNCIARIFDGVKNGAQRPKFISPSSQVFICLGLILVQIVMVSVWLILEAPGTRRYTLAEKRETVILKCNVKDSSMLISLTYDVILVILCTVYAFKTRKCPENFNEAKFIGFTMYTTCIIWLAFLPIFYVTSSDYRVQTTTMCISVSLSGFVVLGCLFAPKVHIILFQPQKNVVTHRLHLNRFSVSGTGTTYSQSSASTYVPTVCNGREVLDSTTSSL
T2 sequence (P41594 whole entry): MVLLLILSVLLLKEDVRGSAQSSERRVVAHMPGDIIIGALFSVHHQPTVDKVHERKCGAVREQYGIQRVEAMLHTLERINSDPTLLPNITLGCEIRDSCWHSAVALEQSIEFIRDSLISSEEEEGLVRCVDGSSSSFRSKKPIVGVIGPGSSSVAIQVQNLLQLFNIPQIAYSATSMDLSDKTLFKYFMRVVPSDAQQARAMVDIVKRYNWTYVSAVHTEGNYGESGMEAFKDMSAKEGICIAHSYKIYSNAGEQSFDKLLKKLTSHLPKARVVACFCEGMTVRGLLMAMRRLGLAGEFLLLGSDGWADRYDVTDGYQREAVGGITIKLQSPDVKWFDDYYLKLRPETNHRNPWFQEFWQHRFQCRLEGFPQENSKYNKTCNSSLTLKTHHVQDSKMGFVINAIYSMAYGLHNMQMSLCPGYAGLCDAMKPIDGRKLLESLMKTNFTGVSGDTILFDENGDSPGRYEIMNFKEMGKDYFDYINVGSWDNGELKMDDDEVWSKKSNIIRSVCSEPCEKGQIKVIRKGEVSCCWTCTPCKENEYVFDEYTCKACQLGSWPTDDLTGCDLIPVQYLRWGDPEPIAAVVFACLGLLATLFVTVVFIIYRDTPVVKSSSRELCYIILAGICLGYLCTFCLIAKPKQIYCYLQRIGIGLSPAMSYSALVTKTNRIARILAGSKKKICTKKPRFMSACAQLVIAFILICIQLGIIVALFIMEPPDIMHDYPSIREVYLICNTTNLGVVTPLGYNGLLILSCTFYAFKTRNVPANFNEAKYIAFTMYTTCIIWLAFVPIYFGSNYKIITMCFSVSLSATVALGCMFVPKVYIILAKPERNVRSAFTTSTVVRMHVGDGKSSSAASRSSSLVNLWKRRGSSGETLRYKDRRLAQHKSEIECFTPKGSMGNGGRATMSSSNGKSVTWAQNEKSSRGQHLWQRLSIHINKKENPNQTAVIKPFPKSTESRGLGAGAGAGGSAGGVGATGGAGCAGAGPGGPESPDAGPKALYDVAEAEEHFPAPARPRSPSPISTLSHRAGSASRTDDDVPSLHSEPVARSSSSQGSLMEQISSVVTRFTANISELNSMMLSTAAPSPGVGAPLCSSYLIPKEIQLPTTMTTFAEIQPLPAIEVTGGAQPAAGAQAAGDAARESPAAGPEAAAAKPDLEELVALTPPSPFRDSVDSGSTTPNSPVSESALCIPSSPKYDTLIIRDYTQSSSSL
Chain of D(1A) dopamine receptor (Homo sapiens) (P21728 whole entry): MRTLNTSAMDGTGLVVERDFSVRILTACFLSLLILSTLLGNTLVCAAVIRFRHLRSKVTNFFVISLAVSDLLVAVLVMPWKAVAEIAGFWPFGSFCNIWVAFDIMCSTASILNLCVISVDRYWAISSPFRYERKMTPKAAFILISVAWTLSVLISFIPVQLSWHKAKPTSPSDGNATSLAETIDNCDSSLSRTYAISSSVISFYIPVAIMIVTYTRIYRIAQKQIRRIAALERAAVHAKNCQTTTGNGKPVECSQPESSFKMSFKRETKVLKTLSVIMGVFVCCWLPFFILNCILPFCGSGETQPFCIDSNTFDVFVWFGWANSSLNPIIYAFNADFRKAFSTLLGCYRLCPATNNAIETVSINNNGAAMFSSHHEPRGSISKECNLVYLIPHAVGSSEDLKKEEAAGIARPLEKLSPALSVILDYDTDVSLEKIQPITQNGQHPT
Chain of Histamine H2 receptor (Homo sapiens) (P25021 whole entry): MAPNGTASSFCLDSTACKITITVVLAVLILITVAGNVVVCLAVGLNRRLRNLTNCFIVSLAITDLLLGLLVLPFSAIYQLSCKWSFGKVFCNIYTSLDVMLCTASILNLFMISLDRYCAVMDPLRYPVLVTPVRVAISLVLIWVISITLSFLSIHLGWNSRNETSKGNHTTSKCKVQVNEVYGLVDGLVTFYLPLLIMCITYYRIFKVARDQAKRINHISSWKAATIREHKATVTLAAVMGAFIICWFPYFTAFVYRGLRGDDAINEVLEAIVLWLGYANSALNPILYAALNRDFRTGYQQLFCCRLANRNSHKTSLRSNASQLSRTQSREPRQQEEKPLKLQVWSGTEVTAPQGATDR
Chain of Cytochrome P450 3A4 (P08684 whole entry): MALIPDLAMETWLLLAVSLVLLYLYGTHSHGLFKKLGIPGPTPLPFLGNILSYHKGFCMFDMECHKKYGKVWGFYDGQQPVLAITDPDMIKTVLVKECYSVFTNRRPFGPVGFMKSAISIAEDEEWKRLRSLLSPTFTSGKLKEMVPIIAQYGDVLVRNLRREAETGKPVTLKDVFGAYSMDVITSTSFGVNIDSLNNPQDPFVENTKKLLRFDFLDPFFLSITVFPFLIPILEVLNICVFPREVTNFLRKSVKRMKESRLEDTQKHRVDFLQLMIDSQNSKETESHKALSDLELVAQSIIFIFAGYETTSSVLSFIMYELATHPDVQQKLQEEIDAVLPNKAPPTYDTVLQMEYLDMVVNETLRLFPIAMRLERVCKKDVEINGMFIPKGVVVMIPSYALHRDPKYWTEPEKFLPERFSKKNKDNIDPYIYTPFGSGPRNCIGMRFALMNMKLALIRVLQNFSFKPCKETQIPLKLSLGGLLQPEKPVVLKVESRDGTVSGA
Chain of Cytochrome P450 2C9 (P11712 whole entry): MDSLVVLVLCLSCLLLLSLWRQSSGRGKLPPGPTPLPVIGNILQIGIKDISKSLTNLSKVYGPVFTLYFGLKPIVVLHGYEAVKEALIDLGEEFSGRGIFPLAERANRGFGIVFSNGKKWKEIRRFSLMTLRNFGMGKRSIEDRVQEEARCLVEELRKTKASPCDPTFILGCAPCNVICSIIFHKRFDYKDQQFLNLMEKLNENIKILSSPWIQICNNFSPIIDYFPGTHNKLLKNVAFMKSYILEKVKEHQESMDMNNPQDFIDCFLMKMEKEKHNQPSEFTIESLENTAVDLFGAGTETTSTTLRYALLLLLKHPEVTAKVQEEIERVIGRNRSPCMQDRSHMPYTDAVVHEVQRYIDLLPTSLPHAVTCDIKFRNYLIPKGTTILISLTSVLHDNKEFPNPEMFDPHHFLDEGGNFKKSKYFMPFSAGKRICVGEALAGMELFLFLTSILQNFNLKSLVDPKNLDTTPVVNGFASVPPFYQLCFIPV

- inhibition [2]: -6%
- pKi [3]: < 5.10
- inhibition [4]: 5.2%
- pEC50 [5]: < 4.90
- Vd [6]: 2 L/kg
- pIC50 [7]: < 4.90
- pIC50 [8]: < 4.90
- clearance [9]: 11 mL/min/kg
- Cmax [10]: 78 ng/mL
- BPR [11]: < 1%
- pKi [12]: < 5.20
- pKi [13]: < 5.62
- pEC50 [14]: < 4.60
- pKi [16]: < 5.45
- INH [17]: > 40 µM
- Cmax [18]: 2540 ng/mL
- bioavailability [19]: 39%
- INH [20]: > 40 µM
- pEC50 [21]: < 4.60
- inhibition [22]: 10.2%
- pIC50 [23]: < 4.90
- inhibition [25]: -4.5%
- inhibition [26]: 6.4%
- pEC50 [27]: 6.54 to 6.70
- Vd [28]: 2 L/kg
- INH [29]: > 40 µM
SMILES: CC(=O)c1ccc(OCc2ccc(Oc3cc(-c4nn[nH]n4)ccn3)cc2)c(C)c1O
- Activity [1]: Dose-dependent effect
- ID100 [1]: 1 µg/kg
- Ratio [15]: 0.65
- Ratio [24]: 7.8
